{"source": "patent US4260630A", "about": "“Skin diseases” (priority 1977, dated 1981)", "key": {"calf thymus DNA": {"system": "calf thymus DNA", "assay": "Photobinding to native calf thymus DNA in vitro", "assay_type": "binding", "settings": "for cpm/μg DNA / μg 3-CPs/μg DNA: 6 × 10^-5 M", "quoted_text": "These determinations were done in vitro and in vivo. […] The thickness of the irradiated sample was 1 mm. After irradiation, the solution was diluted by a factor of 2, and NaCl was added to a final concentration of 1 M. The DNA was precipitated with 2 volumes of cold pure ethanol. The samples were left overnight in the cold at -20° C. The precipitate was then washed by centrifugation three times with 3 ml of 70% ethanol and redissolved in 3 ml of water. The DNA recovery was checked by determination of the optical density of the solution at 260 nm."}, "Saccharomyces cerevisiae [1]": {"system": "Saccharomyces cerevisiae", "method": "(§1) A wild-type strain 211-1aM (29) of Saccharomyces cerivisiae was used, and the following mutants derived from it: S24-12c rad2-20 deficient in excision repair and S25-13b rad9-4 likely to be blocked in a recombinational repair pathway; a double mutant S 2057NL-24 rad2-20 -rad9-4 clone B was obtained by tetrad analysis of a heterozygote [formula]\n(§2) The media and culture conditions used were as described in D. Averbeck, E. Moustacchi, (1975) Biochim. Biophys. Acta, 395, 393-404.\n(§3) 10^6 cells/ml in saline (0.9% NaCl) were treated for 30 minutes with the drugs at a final concentration of 10 μg/ml and 1.2% ethanol present.\n(§4) A Philips HPW 125 culot Edison high pressure mercury lamp was used with maximal output at the wavelength 365 nm. The irradiation dose measured by actinometry was 10 J/m^2 per sec., using the following set up: 10 ml of actinometer solution (or the cell suspension, usually 1×10^6 cells/ml), stirred continuously by a magnetic stirrer, were irradiated at room temperature in an open Petri dish of 10 cm diameter at a distance of 10 cm from the center of the light bulb which was mounted horizontally. A 2 mm thick pyrex glass sheet (20×25 cm) was placed in the center of the light beam to cut out UV light of wavelength below 340 nm. Overheating was prevented either by a continuous flow of compressed air between the light bulb and the glass or by a pyrex glass water filter of 3 cm total thickness. An accumulative irradiation dose was given to the same sample. After each dose 0.1 ml of irradiated cell suspension was taken, diluted and aliquots plated."}, "Saccharomyces cerevisiae [2]": {"system": "Saccharomyces cerevisiae", "assay": "Induction of cytoplasmic \"petite\" mutations in yeast", "settings": "compared at the same survival level (10%)", "method": "as §1, §2, §3\nas §4, with “Overheating was prevented either by a continuous flow of compressed air between the light bulb and the glass or by a pyrex glass water filter of 3 cm total thickness. An accumulative irradiation dose was given to the same sample. After each dose 0.1 ml of irradiated cell suspension was taken, diluted and aliquots plated.” left out"}, "cutaneous tissue": {"system": "cutaneous tissue", "settings": "in vivo; cited from earlier work"}, "yeast DNA [3]": {"system": "yeast DNA", "assay": "Melting and reassociation (cross-link formation) of yeast DNA treated in vitro plus 365 nm light", "assay_type": "biochemical", "method": "Measurement of the melting and reassociation characteristics of yeast DNA:\nBiophys. […] The fractions containing the nuclear DNA were pooled and dialysed against a 0.1 M, pH 7 phosphate buffer. […] Unirradiated samples of DNA with or without the drugs were taken as references.\nThe cross-links formation of the two furocoumarins with native yeast DNA was tested by measuring the denaturation and renaturation pattern."}, "yeast DNA [4]": {"system": "yeast DNA", "assay": "Photobinding to yeast DNA in vivo (radiolabelled drug plus 365 nm light)", "assay_type": "binding, Saccharomyces cerevisiae", "method": "The radioactivity of an aliquot (0.1 ml) of this solution was measured in 5 ml of scintillation mixture (Nuclear Entreprise, Ltd., Edinburgh, Scotland, NE 250).\nFor the in vivo determinations stationary phase cells of the haploid wild type strain N 123 were prepared as previously described.\n2 ml cell suspensions were exposed to several doses of 365 nm light. In parallel, non irradiated samples were incubated for the same periods. Immediately after incubation and/or irradiation, the samples were centrifuged and the pellet was washed 3 times with 5 ml of saline (0.9% NaCl). The washed cell pellet was resuspended in 1 ml of saline and 1 ml of 2 N NaOH was added in order to hydrolyze the RNA. The suspension was incubated overnight in the dark at room temperature, then cooled down on ice, and 2 ml of 50% TCA were added slowly. The samples were left 20 minutes on ice and the precipitated DNA was filtered on a glass fiber filter disc (Whatman GF/A, 2.1 cm diameter). In some cases the filtrate containing the acid-soluble material was kept aside, and the radioactivity of an aliquot added to 5 ml of NE250 scintillation mixture measured. The precipitate was washed 3 times with 5 ml of 5% cold TCA and 5 ml of 70% ethanol. The filters were then dried and the radioactivity measured in plastic counting vials containing 5 ml of scintillation mixture (NE 250) in a Tricarb Packard scintillation spectrophotometer."}, "[5]": {"settings": "15 min, 18.9 × 10^4 ergs. mm^-2 365 nm"}, "[6]": {"settings": "30 min, 37.8 × 10^4 ergs. mm^-2 365 nm"}, "[7]": {"settings": "45 min, 56.7 × 10^4 ergs. mm^-2 365 nm"}, "[8]": {"settings": "60 min, 75.6 × 10^4 ergs. mm^-2 365 nm"}, "[9]": {"settings": "5 min, 6.3 × 10^4 ergs.mm^-2 365 nm"}, "[10]": {"settings": "10 min, 12.6 × 10^4 ergs.mm^-2 365 nm"}, "[11]": {"settings": "15 min, 18.9 × 10^4 ergs.mm^-2 365 nm"}, "[12]": {"settings": "20 min, 25.2 × 10^4 ergs.mm^-2 365 nm"}, "[13]": {"settings": "30 min, 38.8 × 10^4 ergs.mm^-2 365 nm"}}, "note": "Entries after “also recorded” stand apart in the source; their conditions may differ."}
{"smiles": "CCOC(=O)c1cc2cc3ccoc3cc2oc1=O", "note": "[Example 3-CPs, 3-carboethoxypsoralen]", "values": [{"measurement": "cpm/μg DNA", "setting": "calf thymus DNA; 0-60 min incubation (dark)", "result": 0.21, "unit": "cpm/μg DNA"}, {"measurement": "μg 3-CPs/μg DNA", "setting": "calf thymus DNA; 0-60 min incubation (dark)", "result": "0.009×10^-3 μg 3-CPs/μg DNA"}, {"measurement": "cpm/μg DNA", "setting": "calf thymus DNA; [5]", "result": 3.29, "unit": "cpm/μg DNA"}, {"measurement": "μg 3-CPs/μg DNA", "setting": "calf thymus DNA; [5]", "result": "0.14×10^-3 μg 3-CPs/μg DNA"}, {"measurement": "cpm/μg DNA", "setting": "calf thymus DNA; [6]", "result": 4.25, "unit": "cpm/μg DNA"}, {"measurement": "μg 3-CPs/μg DNA", "setting": "calf thymus DNA; [6]", "result": "0.18×10^-3 μg 3-CPs/μg DNA"}, {"measurement": "cpm/μg DNA", "setting": "calf thymus DNA; [7]", "result": 4.30, "unit": "cpm/μg DNA"}, {"measurement": "μg 3-CPs/μg DNA", "setting": "calf thymus DNA; [7]", "result": "0.18×10^-3 μg 3-CPs/μg DNA"}, {"measurement": "cpm/μg DNA", "setting": "calf thymus DNA; [8]", "result": 3.10, "unit": "cpm/μg DNA"}, {"measurement": "μg 3-CPs/μg DNA", "setting": "calf thymus DNA; [8]", "result": "0.13×10^-3 μg 3-CPs/μg DNA"}, {"measurement": "dose of 365 nm light up to which binding increases rapidly", "setting": "calf thymus DNA; in vitro", "result": "up to 3780 J/m^2"}, {"measurement": "difference in photoreactivity with DNA in vitro, 3-CPs vs 8-MOP", "setting": "calf thymus DNA; in vitro (table 3)", "result": 4.8, "unit": "factor"}, {"measurement": "photoreactivity with native DNA, times lower than 8-MOP", "setting": "calf thymus DNA; initial part of the photoreaction", "result": "about 5 times"}, {"measurement": "difference in survival response, 3-CPs vs 8-MOP", "setting": "Saccharomyces cerevisiae [1]", "result": 6, "unit": "factor"}, {"measurement": "dose-modifying factor for rad9-4 compared to wild type", "setting": "Saccharomyces cerevisiae [1]", "result": "constant"}, {"measurement": "photobiological activity after previous exposure to light", "setting": "Saccharomyces cerevisiae [1]", "result": "decline in the photobiological activity"}, {"measurement": "resistance to the killing effect compared with 8-MOP", "setting": "Saccharomyces cerevisiae [1]", "result": "much higher than that expected from the photoreactivity"}, {"measurement": "shape of survival curve", "setting": "Saccharomyces cerevisiae [1]", "result": "exponential survival curve"}, {"measurement": "survival level compared with 8-MOP", "setting": "Saccharomyces cerevisiae [1]", "result": "still relatively high as compared to that for 8-MOP"}, {"measurement": "survivors", "setting": "Saccharomyces cerevisiae [1]; saline, 5 min", "result": "10^-1"}, {"measurement": "concentration versus 365 nm light dose, log-log plot at given survival", "setting": "Saccharomyces cerevisiae [1]; wild type and rad9-4", "result": "follows a linear function"}, {"measurement": "reciprocity between light dose and drug concentration for cell killing", "setting": "Saccharomyces cerevisiae [1]; wild type and rad9-4", "result": "no reciprocity between the light dose and the drug concentration"}, {"measurement": "induction of cytoplasmic \"petite\" mutations", "setting": "Saccharomyces cerevisiae [2]", "result": "the most reactive compound"}, {"measurement": "photosensitizing activity", "setting": "cutaneous tissue", "result": "completely inactive"}, {"measurement": "reassociation of DNA after heat denaturation", "setting": "yeast DNA [3]", "result": "such a reassociation was not found"}, {"measurement": "cross-links in DNA", "setting": "yeast DNA [3]; dose range used", "result": "does not induce cross-links in DNA; also recorded: absence of cross-link formation"}, {"measurement": "Molecules 3-CPs/μg DNA", "setting": "yeast DNA [4]; 5-60 min, no 365 nm light", "result": "0.012 Molecules 3-CPs/μg DNA × 10^14"}, {"measurement": "cpm for 10^8 cells", "setting": "yeast DNA [4]; 5-60 min, no 365 nm light", "result": 67.75, "unit": "cpm for 10^8 cells"}, {"measurement": "μg 3-CPs/μg DNA", "setting": "yeast DNA [4]; 5-60 min, no 365 nm light", "result": 0.05, "unit": "μg 3-CPs/μg DNA × 10^-2"}, {"measurement": "molecules linked to DNA per cell", "setting": "yeast DNA [4]; 18.9×10^3 J/m^2, 5×10^-5 M", "result": "10.5×10^6 molecules per cell"}, {"measurement": "binding ratio: pyrimidine bases per 1 bound molecule", "setting": "yeast DNA [4]; 18.9×10^3 J/m^2, 5×10^-5 M, on average", "result": 2, "unit": "pyrimidine bases"}, {"measurement": "Molecules 3-CPs/μg DNA", "setting": "yeast DNA [4]; [9]", "result": "0.92 Molecules 3-CPs/μg DNA × 10^14"}, {"measurement": "cpm for 10^8 cells", "setting": "yeast DNA [4]; [9]", "result": 5030.5, "unit": "cpm for 10^8 cells"}, {"measurement": "μg 3-CPs/μg DNA", "setting": "yeast DNA [4]; [9]", "result": 3.9, "unit": "μg 3-CPs/μg DNA × 10^-2"}, {"measurement": "binding to DNA in vivo compared with in vitro", "setting": "yeast DNA [4]; 365 nm light", "result": "higher in the in vivo condition than in vitro"}, {"measurement": "Molecules 3-CPs/μg DNA", "setting": "yeast DNA [4]; [10]", "result": "1.34 Molecules 3-CPs/μg DNA × 10^14"}, {"measurement": "cpm for 10^8 cells", "setting": "yeast DNA [4]; [10]", "result": 9409, "unit": "cpm for 10^8 cells"}, {"measurement": "μg 3-CPs/μg DNA", "setting": "yeast DNA [4]; [10]", "result": 5.7, "unit": "μg 3-CPs/μg DNA × 10^-2"}, {"measurement": "Molecules 3-CPs/μg DNA", "setting": "yeast DNA [4]; [11]", "result": "2.1 Molecules 3-CPs/μg DNA × 10^14"}, {"measurement": "cpm for 10^8 cells", "setting": "yeast DNA [4]; [11]", "result": 11386.5, "unit": "cpm for 10^8 cells"}, {"measurement": "μg 3-CPs/μg DNA", "setting": "yeast DNA [4]; [11]", "result": 9, "unit": "μg 3-CPs/μg DNA × 10^-2"}, {"measurement": "Molecules 3-CPs/μg DNA", "setting": "yeast DNA [4]; [12]", "result": "2.8 Molecules 3-CPs/μg DNA × 10^14"}, {"measurement": "cpm for 10^8 cells", "setting": "yeast DNA [4]; [12]", "result": 15650.2, "unit": "cpm for 10^8 cells"}, {"measurement": "μg 3-CPs/μg DNA", "setting": "yeast DNA [4]; [12]", "result": 12.3, "unit": "μg 3-CPs/μg DNA × 10^-2"}, {"measurement": "Molecules 3-CPs/μg DNA", "setting": "yeast DNA [4]; [13]", "result": "2.8 Molecules 3-CPs/μg DNA × 10^14"}, {"measurement": "cpm for 10^8 cells", "setting": "yeast DNA [4]; [13]", "result": 15307, "unit": "cpm for 10^8 cells"}]}
